We go through two molecules from patent publication US9670156B2, “Crystal form III of (S)-oxiracetam, preparation method and use thereof” (Chongqing Runze Pharmaceutical Company Limited, priority 2013, dated 2017).

Details of data set [1]: species or system Beagle dogs. The following applies: dog, in vivo; for AUCO-∞ / T1/2 / Tmax / bioavailability of crystal form I and III compared: po. The source says: Base on the existing LC-MS method for determination of (S)-oxiracetam in a biological sample, 6 healthy Beagle dogs are used in the experiment. They are weighted 8-10 kg, and divided into two groups of three. They are used to observe the bioavailability of the different crystal forms of (S)-oxiracetam after oral administration to the dogs. The pharmacokinetics of the crystal forms I and III of (S)-oxiracetam in the dogs are studied. And oxiracetam is used as reference preparation to evaluate whether the bioavailability of crystal forms I and III are equivalent. The bioequivalence is evaluated by calculating the pharmacokinetic parameters. Results: The main pharmacokinetic parameters of the crystal forms I and III of (S)-oxiracetam in the Beagle dogs are as follows: Tmax are (1.561±0.398) and (1.498±0.3988), Cmax are (198.076±80.462) and (186.205±50.321) […], respectively; T1/2 are (0.915±0.125) and (0.909±0.112) h, respectively; and AUCO-∞ are (456.268±85.567) and (436.364±75.204) […], respectively.

On the set-up of data set [2]: species or system Beagle dogs. The following applies: dog, in vivo, po.
A short description of data set [3]: Dissolution in aqueous solution compared with other crystal forms. The data set is classed as physicochemical. The following applies: compared with other crystal forms of (S)-oxiracetam.

Turning to `NC(=O)CN1C[C@@H](O)CC1=O` [crystal form I, (S)-4-hydroxy-2-oxo-1-pyrrolidine acetamide], in data set [1], the “AUCO-∞” value turned out to be 456.268 ± 85.567 mg·h/mL; the T1/2 stood at 54.9 ± 7.5 min; the Tmax worked out at 1.561±0.398; the “bioavailability of crystal form I and III compared” value is given as “exactly the same”. In addition, in data set [2], the Cmax was 198 ± 80.5 µg/mL.

For the molecule `NC(=O)CN1C[C@@H](O)CC1=O` [crystal form III, (S)-4-hydroxy-2-oxo-1-pyrrolidine acetamide], the “dissolution in aqueous solution” value in data set [3] was “dissolves fast”. Moreover, in data set [1], the bioavailability result is given as “high bioavailability”, the “AUCO-∞” value was 436.364 ± 75.204 mg·h/mL, the T1/2 was determined as 54.5 ± 6.72 min and the Tmax worked out at 1.498±0.3988. The “bioavailability of crystal form I and III compared” value in data set [1] was “exactly the same”. For the same molecule, the Cmax in data set [2] came out at 186 ± 50.3 µg/mL.

One may read the Cmax as the peak of the concentration-time curve.
